Results on three molecules are retold here after patent EP4541885A1, “OPTIMIZED PHLOROGLUCINOL SYNTHASES” (priority 2023, dated 2025).

Holding throughout (assay): Kinetic parameters determination (HPLC monitoring of MLC consumed and CoA produced)
In data set [1] the test system is Tsukamurella pulmonis phloroglucinol synthase PhlD_Tpu variant M27 (A124P, A154P, S177A, S236P, E268Q, E271R, A298D), SEQ ID NO: 3. The data set is classed as biochemical. The protocol: (§1) The selected PhlD_Tpu sequences are amplified from the yeast expression plasmid and fused with a 6xHis tag encoded at the C-terminus. This fusion is inserted into the pET26b(+) plasmid, between the XhoI and NdeI restriction sites (as shown in Figure 4), with the […] controlling its expression. The recombinant plasmid is used to transform E. coli BL21(DE3) competent cells, which are grown in LB medium (10 g/L NaCl, 10 g/L Tryptone, 5 g/L yeast extract) at 37° C with shaking, in a final volume of 500 mL. The expression of the recombinant plasmid is initiated by adding 0.1 mM of IPTG when the OD600nm reaches 0.4-0.5. The cells are then allowed to grow overnight at 20°C until they reach an OD600nm of approximately 1.5-1.6.
(§2) E. coli BL21(DE3) cells transformed as described in paragraph 1.2.4 above were disrupted by Fast-Prep at a speed setting of 6 m/sec for 3 cycles of 45 sec. The supernatant is filtered on a 0.45 µm membrane before being applied to a 1 mL Talon® Resin column. The column is washed first with 10 column volumes of sodium phosphate buffer (50 mM, pH7; NaCl 100 mM) and with 10 column volumes of sodium phosphate buffer with 10 mM of imidazole ([…], Phosphate buffer 50 mM, 500 mM imidazole pH 8.5; 100mM NaCl). Protein elution is performed using 150 mM imidazole in sodium phosphate buffer (50 mM pH 7, NaCl 100mM). Collected fractions are pooled and diafiltrated using 5 volumes of sodium phosphate buffer (50 mM pH 7, NaCl 100mM) using a 30 kDa diafiltration unit (Amicon ®Ultra, Merck) before reducing the volume to 500 µL.
(§3) The concentrate is applied on a gel filtration column (S200 TRICORN 10/300 Superdex 200). Elution is performed with an isocratic gradient of sodium phosphate buffer (50 mM pH 7, NaCl 100mM). The purity of the various fractions obtained is checked by SDS-PAGE (Mini-PROTEAN TGX Stain-Free Gels, Bio Rad)
(§4) In order to access the kinetic parameters of PhlD_Tpu, the concentrations of MLC consumed and CoA produced were monitored by HPLC. The experiments were run for 120 sec and only the linear part of CoA variation with time was used to calculate initial velocity. The experiments were carried using a range of MLC concentrations (5-100 µM) in sodium phosphate buffer (50 mM pH 7), at 30°C, and with 0.5 µM of pure enzyme. At 10, 20, 30, 50, 60 and 120 sec, 100 µL aliquots of the reaction mixture were quenched with 10 µL of 10% (v/v) formic acid and kept at room temperature before HPLC analysis. With these conditions, the CoA production increased linearly with time until 50 sec. Table 7: HPLC conditions for MLC and CoA separation and quantification.

In data set [2] the target is T1, Tsukamurella pulmonis phloroglucinol synthase PhlD_Tpu WT, wild type, SEQ ID NO: 1 (Tsukamurella pulmonis, UniProt A0A1H1FBR5).
T1 sequence (A0A1H1FBR5 1-390): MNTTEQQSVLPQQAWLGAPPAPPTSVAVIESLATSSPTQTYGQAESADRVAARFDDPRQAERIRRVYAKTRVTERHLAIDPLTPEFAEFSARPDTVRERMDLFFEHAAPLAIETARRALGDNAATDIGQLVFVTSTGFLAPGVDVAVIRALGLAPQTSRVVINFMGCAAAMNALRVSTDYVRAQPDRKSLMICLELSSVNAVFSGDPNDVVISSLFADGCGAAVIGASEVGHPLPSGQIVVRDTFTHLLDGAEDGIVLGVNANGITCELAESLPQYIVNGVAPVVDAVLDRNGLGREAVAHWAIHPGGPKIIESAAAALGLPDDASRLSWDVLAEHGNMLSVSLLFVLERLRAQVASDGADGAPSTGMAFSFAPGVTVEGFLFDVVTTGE
The format is biochemical. The settings on record: MLC 5-100 µM, sodium phosphate buffer 50 mM pH 7, 30°C, 0.5 µM pure enzyme. The procedure: as §1, §2, §3, §4

Data set [3] deals with CC(C)(COP(=O)(O)OP(=O)(O)OC[C@H]1O[C@@H](n2cnc3c(N)ncnc32)[C@H](O)[C@@H]1OP(=O)(O)O)[C@@H](O)C(=O)NCCC(=O)NCCSC(=O)CC(=O)O. The format is biochemical, Tsukamurella pulmonis. The conditions noted are these: other: MLC 5-100 µM, sodium phosphate buffer 50 mM pH 7, 30°C, 0.5 µM pure enzyme. The protocol: as §1, §2, §3, §4
Substrate in data set [4]: CC(C)(COP(=O)(O)OP(=O)(O)OC[C@H]1O[C@@H](n2cnc3c(N)ncnc32)[C@H](O)[C@@H]1OP(=O)(O)O)[C@@H](O)C(=O)NCCC(=O)NCCSC(=O)CC(=O)O
The format is biochemical, Tsukamurella pulmonis. The conditions noted are these: other: MLC 5-100 µM, sodium phosphate buffer 50 mM pH 7, 30°C, 0.5 µM pure enzyme. The protocol:
as §1
E. coli BL21(DE3) cells transformed as described in paragraph 1.2.4 above were disrupted by Fast-Prep at a speed setting of 6 m/sec for 3 cycles of 45 sec. The supernatant is filtered on a 0.45 µm membrane before being applied to a 1 mL Talon® Resin column. […]
In order to access the kinetic parameters of PhlD_Tpu, the concentrations of MLC consumed and CoA produced were monitored by HPLC. […] Table 7: HPLC conditions for MLC and CoA separation and quantification.
This is another data set of the same source.

A word on the kcat: it is the number of substrate molecules converted per active site and unit of time at saturation. Turning to `CC(C)(COP(=O)(O)OP(=O)(O)OC[C@H]1O[C@@H](n2cnc3c(N)ncnc32)[C@H](O)[C@@H]1OP(=O)(O)O)[C@@H](O)C(=O)NCCC(=O)NCCSC(=O)CC(=O)O` [malonyl-CoA], the “kcat reduced by a factor (M27 vs PhlD_Tpu WT)” value in data set [1] (factor of reduction relative to PhlD_Tpu WT) amounted to 1.3. In data set [1] (relative to PhlD_Tpu WT), the “KM relative to PhlD_Tpu WT” value was “twice lower” and the “catalytic efficiency, times higher compared to PhlD_Tpu WT” value is reported as 1.6. The kcat in data set [2] came to 0.38 s⁻¹.

By Km is commonly meant the concentration of substrate that gives half-maximal velocity. What is called kcat/Km is the second-order rate constant that governs catalysis at low substrate concentration. Consider “Tsukamurella pulmonis phloroglucinol synthase PhlD_Tpu variant M27 (A124P, A154P, S177A, S236P, E268Q, E271R, A298D), SEQ ID NO: 3 (Tsukamurella pulmonis; A124P/A154P/A298D/E268Q/E271R/S177A/S236P)”, for which, in data set [3], the Km worked out at 4.9 ± 0.544 µM, the kcat turned out to be 0.28 ± 0.06 s⁻¹ and the kcat/Km amounted to 57000 M⁻¹ s⁻¹.

B1: Tsukamurella pulmonis phloroglucinol synthase PhlD_Tpu WT, wild type, SEQ ID NO: 1 (Tsukamurella pulmonis) (protein)
chain: T1 sequence (A0A1H1FBR5 1-390)
With B1, in data set [4], the Km stood at 10.52 µM.
